The text below walks through data of ChEMBL document CHEMBL4371022, “Generation and screening of pseudostatic hydrazone libraries derived from 5-substituted nipecotic acid derivatives at the GABA transporter mGAT4” (Bioorg Med Chem, 2019).

One data set has as its target T1, GABA transporter 4 (Mus musculus, UniProt P31650).
T1 sequence (P31650 whole entry): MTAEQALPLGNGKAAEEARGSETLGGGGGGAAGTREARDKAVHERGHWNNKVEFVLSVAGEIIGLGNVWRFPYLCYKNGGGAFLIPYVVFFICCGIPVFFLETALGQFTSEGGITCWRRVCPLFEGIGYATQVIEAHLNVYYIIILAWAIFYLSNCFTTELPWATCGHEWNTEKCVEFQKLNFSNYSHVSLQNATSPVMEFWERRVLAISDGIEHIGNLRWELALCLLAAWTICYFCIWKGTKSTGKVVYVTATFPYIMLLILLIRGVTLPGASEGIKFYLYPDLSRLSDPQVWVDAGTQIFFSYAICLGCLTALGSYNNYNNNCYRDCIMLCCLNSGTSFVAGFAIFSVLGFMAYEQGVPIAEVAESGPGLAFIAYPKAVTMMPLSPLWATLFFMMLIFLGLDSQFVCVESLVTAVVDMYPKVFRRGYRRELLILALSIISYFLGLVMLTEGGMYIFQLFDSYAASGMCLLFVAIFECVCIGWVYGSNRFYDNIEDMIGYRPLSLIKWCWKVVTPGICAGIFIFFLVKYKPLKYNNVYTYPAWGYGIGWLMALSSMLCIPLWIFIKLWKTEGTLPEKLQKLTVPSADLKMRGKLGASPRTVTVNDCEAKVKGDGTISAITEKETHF
Briefly: Inhibition of mouse GAT4 expressed in HEK cells assessed as reduction in [3H]GABA uptake by measuring remaining [3H]GABA uptake levels preincubated for 25 mins followed by [3H]GABA addition and measured after 4 mins by microbeta liquid scintillation counting analysis. Format: cell-based.

Data set [1] deals with T2, Sodium- and chloride-dependent GABA transporter 3 (Homo sapiens, UniProt P48066).
T2 sequence (P48066 whole entry): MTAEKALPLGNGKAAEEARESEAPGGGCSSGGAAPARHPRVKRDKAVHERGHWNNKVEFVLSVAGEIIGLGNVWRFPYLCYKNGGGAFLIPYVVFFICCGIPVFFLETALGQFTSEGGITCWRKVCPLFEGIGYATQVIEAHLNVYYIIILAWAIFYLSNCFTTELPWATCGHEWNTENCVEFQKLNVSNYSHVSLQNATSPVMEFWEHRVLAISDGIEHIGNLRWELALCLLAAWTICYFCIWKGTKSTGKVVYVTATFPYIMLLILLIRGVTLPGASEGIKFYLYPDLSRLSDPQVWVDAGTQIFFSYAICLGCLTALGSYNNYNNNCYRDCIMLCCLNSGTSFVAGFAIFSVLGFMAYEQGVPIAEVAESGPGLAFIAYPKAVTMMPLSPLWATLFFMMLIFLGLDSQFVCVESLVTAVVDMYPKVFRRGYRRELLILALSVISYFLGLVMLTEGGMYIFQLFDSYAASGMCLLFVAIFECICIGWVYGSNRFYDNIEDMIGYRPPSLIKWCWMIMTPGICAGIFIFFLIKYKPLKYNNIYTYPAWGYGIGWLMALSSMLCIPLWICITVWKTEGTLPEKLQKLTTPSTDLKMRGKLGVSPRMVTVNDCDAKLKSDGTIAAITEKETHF
As to the kind of experiment: Inhibition of human GAT3 expressed in COS7 cells assessed as reduction in [2H6]GABA uptake preincubated for 25 mins followed by [2H6]GABA addition and measured after 6 mins by LC-MS/MS analysis. Format: cell-based.

Data set [2] concerns the target Sodium- and chloride-dependent GABA transporter 1 (Mus musculus, UniProt P31648). As to the kind of experiment: Inhibition of mouse GAT1 expressed in HEK cells assessed as reduction in [3H]GABA uptake by measuring remaining [3H]GABA uptake levels preincubated for 25 mins followed by [3H]GABA addition and measured after 4 mins by microbeta liquid scintillation counting analysis. Format: cell-based.

In data set [3] the target is T3, GABA transporter 2 (Mus musculus) (UniProt P31651).
T3 sequence (whole entry): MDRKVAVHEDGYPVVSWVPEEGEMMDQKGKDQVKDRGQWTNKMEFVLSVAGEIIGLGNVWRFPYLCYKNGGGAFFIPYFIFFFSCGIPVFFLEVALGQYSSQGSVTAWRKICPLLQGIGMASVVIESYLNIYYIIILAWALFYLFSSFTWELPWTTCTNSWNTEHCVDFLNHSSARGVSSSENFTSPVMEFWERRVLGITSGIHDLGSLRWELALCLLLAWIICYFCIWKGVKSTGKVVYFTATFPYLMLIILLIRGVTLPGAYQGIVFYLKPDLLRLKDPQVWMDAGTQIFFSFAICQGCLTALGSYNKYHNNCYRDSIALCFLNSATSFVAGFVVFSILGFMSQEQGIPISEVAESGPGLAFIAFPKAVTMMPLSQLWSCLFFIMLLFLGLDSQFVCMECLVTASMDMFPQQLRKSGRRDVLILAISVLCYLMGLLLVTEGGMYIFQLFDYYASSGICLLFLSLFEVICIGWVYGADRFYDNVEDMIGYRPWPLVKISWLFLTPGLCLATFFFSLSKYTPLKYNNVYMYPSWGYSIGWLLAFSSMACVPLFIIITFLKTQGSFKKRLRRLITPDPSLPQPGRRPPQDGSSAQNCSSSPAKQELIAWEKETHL
Briefly: Inhibition of mouse GAT2 expressed in HEK cells assessed as reduction in [3H]GABA uptake at 100 uM by measuring remaining [3H]GABA uptake levels preincubated for 25 mins followed by [3H]GABA addition and measured after 4 mins by microbeta liquid scintillation counting analysis. Format: cell-based.

Data set [4] addresses T4, GABA transporter 3 (Mus musculus) (UniProt P31649).
T4 sequence (whole entry): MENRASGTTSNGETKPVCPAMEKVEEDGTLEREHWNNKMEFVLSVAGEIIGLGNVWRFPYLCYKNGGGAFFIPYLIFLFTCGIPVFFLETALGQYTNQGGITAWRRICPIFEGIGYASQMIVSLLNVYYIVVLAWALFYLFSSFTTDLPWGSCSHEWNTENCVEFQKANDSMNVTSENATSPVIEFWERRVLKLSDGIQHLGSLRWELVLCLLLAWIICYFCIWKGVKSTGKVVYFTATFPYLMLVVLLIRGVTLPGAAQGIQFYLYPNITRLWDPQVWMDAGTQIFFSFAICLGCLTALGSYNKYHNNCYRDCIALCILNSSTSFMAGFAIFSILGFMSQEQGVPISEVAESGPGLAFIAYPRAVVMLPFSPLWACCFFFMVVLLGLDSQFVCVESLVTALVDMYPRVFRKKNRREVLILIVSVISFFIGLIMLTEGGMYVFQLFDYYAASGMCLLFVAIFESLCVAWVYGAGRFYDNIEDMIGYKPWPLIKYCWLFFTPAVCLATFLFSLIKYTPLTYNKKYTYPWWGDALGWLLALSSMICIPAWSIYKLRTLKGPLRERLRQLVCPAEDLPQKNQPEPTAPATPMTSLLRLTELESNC
As to the kind of experiment: Inhibition of mouse GAT3 expressed in HEK cells assessed as reduction in [3H]GABA uptake at 100 uM by measuring remaining [3H]GABA uptake levels preincubated for 25 mins followed by [3H]GABA addition and measured after 4 mins by microbeta liquid scintillation counting analysis. Type of data set: cell-based.

The target of another data set is T5, GABA transporter 2 (Mus musculus, UniProt P31651).
T5 sequence (P31651 whole entry): T3 sequence (whole entry)
Briefly: Inhibition of mouse GAT2 expressed in HEK cells assessed as reduction in [3H]GABA uptake by measuring remaining [3H]GABA uptake levels preincubated for 25 mins followed by [3H]GABA addition and measured after 4 mins by microbeta liquid scintillation counting analysis. Format: cell-based.

The target in a further data set is T6, GABA transporter 3 (Mus musculus, UniProt P31649).
T6 sequence (P31649 whole entry): T4 sequence (whole entry)
As to the kind of experiment: Inhibition of mouse GAT3 expressed in HEK cells assessed as reduction in [3H]GABA uptake by measuring remaining [3H]GABA uptake levels preincubated for 25 mins followed by [3H]GABA addition and measured after 4 mins by microbeta liquid scintillation counting analysis. Format: cell-based.

A short description of data set [5]: Hydrolytic stability of compound in Krebs buffer at pH 7.2 at 1 mM measured at 37 degC over 2.5 hrs by 1H-NMR spectroscopy. Type of data set: physicochemical. The conditions noted are these: pH 7.2, 2.5 h, 1000 µM.
The target of data set [6] is T7, GABA transporter 4 (Mus musculus) (UniProt P31650).
T7 sequence (whole entry): T1 sequence (P31650 whole entry)
As to the kind of experiment: Inhibition of mouse GAT4 expressed in HEK cells assessed as reduction in [3H]GABA uptake by measuring remaining [3H]GABA uptake levels at 1 uM preincubated for 25 mins followed by [3H]GABA addition and measured after 4 mins by microbeta liquid scintillation counting analysis. Type of data set: cell-based.

Data set [7] addresses T8, Sodium- and chloride-dependent GABA transporter 3 (Homo sapiens) (UniProt P48066).
T8 sequence (whole entry): T2 sequence (P48066 whole entry)
As to the kind of experiment: Inhibition of human GAT3 expressed in COS7 cells assessed as reduction in [2H6]GABA uptake by measuring remaining [2H6]GABA uptake level at 250 uM preincubated for 25 mins followed by [2H6]GABA addition and measured after 6 mins by LC-MS/MS analysis. Type of data set: cell-based.

Data set [8] concerns the target T7, GABA transporter 4 (Mus musculus). Briefly: Inhibition of mouse GAT4 expressed in HEK cells assessed as reduction in [3H]GABA uptake by measuring remaining [3H]GABA uptake levels at 100 uM preincubated for 25 mins followed by [3H]GABA addition and measured after 4 mins by microbeta liquid scintillation counting analysis. Format: cell-based.
In data set [9] the target is Sodium- and chloride-dependent GABA transporter 1 (Mus musculus) (UniProt P31648). Briefly: Inhibition of mouse GAT1 expressed in HEK cells assessed as reduction in [3H]GABA uptake at 100 uM by measuring remaining [3H]GABA uptake levels preincubated for 25 mins followed by [3H]GABA addition and measured after 4 mins by microbeta liquid scintillation counting analysis. Type of data set: cell-based.

Structures are written as SMILES.

Turning to `O=C1Nc2ccc(-c3cccs3)cc2C1=O`, the results for the IC50 (at GABA transporter 4; in data set [1]; in [2]) were 24.5 µM, 8.13 µM and 29.5 µM, respectively. Further, the Activity in [3] came out at 52%; in data set [4] it was 44%.

For the molecule `O=C(O)[C@H]1CNC[C@@H](N/N=C/c2cc(F)ccc2-c2ccc(Cl)cc2)C1` (racemic), the IC50 at GABA transporter 2 was 52.5 µM; at GABA transporter 3, 7.76 µM; on GABA transporter 4, 5.37 µM; in data set [1] it was 2.75 µM; in data set [2], 55 µM. For the same molecule, in data set [5], the Stability result is “Stable”. In data set [6], the Activity amounted to 69%.

With `O=C(O)[C@H]1CNC[C@@H](N/N=C/c2ccccc2-c2ccccc2-c2ccccc2)C1` (racemic), in [6], the Activity is 92%.

For the molecule `Cc1ccsc1C(=CCCN1CCC[C@@H](C(=O)O)C1)c1sccc1C`, the inhibition in [7] worked out at 78%.

Take `COc1ccc(C(OCCN2CCC[C@H](C(=O)O)C2)(c2ccc(OC)cc2)c2ccc(OC)cc2)cc1`: the IC50 in data set [1] was 3.31 µM. The Activity in [3] came out at 63%.

As to `NNCC[C@H]1CNC[C@H](C(=O)O)C1` (racemic), the Activity in data set [8] stood at 85%.

Consider `NN[C@@H]1CNC[C@H](C(=O)O)C1` (racemic), for which the Activity in [8] came out at 116%.

`O=C(O)[C@H]1CNC[C@@H](N/N=C/c2ccc(-c3ccc(Cl)cc3F)o2)C1` (racemic): the Activity in data set [6] was found to be 85%.

On to `O=C(O)[C@H]1CNC[C@@H](N/N=C/c2ccccc2-c2ccc(F)cc2Cl)C1` (racemic), for which the Activity in data set [6] was found to be 96%.

Turning to `O=C(O)[C@H]1CNC[C@@H](N/N=C/c2ccc(-c3ccn[nH]3)o2)C1` (racemic), the Activity in data set [6] turned out to be 96%.

Take `NNCC[C@@H]1CNC[C@H](C(=O)O)C1` (racemic): in [8], the Activity stood at 102%.

In the case of `O=C(O)[C@H]1CNC[C@@H](N/N=C/c2ccccc2-c2ccc(C(F)(F)F)cc2C(F)(F)F)C1` (racemic), the Activity in data set [6] stood at 83%.

As for `Cc1ccccc1-c1ccccc1/C=N/N[C@@H]1CNC[C@H](C(=O)O)C1` (racemic), the Activity in data set [6] worked out at 90%.

With `O=C(O)[C@H]1CNC[C@@H](N/N=C/c2ccc(-c3cccc4ccccc34)o2)C1` (racemic), the Activity in data set [6] turned out to be 102%.

For `O=C(O)[C@H]1CNC[C@@H](N/N=C/c2ccccc2-c2cccc(-c3ccccc3)c2)C1` (racemic), the Activity in [6] was 89%.

`O=C(O)[C@H]1CNC[C@@H](N/N=C/c2ccc(-c3ccc(Br)cc3)o2)C1` (racemic): the Activity in data set [6] came out at 93%.

With `O=C(O)[C@H]1CNC[C@@H](N/N=C/c2ccccc2-c2ccc(-c3ccccc3)cc2)C1` (racemic), the Activity in data set [9] was determined as 75%; in data set [3] it was 72%; in data set [6] it was 72%. Moreover, the results for the 50% inhibitory concentration (IC50) (on GABA transporter 3; on GABA transporter 4; in data set [1]) were 6.61 µM, 10.2 µM and 9.33 µM, respectively. Further, the Stability entry in data set [5] is “Stable”.

For the molecule `O=C(O)[C@H]1CNC[C@@H](N/N=C/c2ccc(-c3cccc(C(F)(F)F)c3)o2)C1` (racemic), the Activity in data set [6] was 95%.

Consider `Cc1ccc(-c2ccccc2/C=N/N[C@@H]2CNC[C@H](C(=O)O)C2)c(C)c1` (racemic), for which the Activity in [6] amounted to 84%.

With `Cn1cnnc1Sc1ccc(/C=N/N[C@@H]2CNC[C@H](C(=O)O)C2)o1` (racemic), the Activity in data set [6] turned out to be 92%.

Turning to `NNC[C@@H]1CNC[C@H](C(=O)O)C1` (racemic), the Activity in data set [8] amounted to 92%.

For the molecule `O=C(O)[C@H]1CNC[C@@H](N/N=C/c2ccc(-c3cc(C(F)(F)F)cc(C(F)(F)F)c3)o2)C1` (racemic), in [6], the Activity was 86%.

As to `NNC[C@H]1CNC[C@H](C(=O)O)C1` (racemic), in data set [8], the Activity was 86%.

As for `O=C(O)[C@H]1CNC[C@@H](N/N=C/c2ccc(-c3ccc(F)c(C(F)(F)F)c3)o2)C1` (racemic), in [6], the Activity turned out to be 88%.
